Assays:
Type in all cases: cell-based
[1] = MTT assay cell viability
Procedure: All the three cell lines (10,000 cells/200 μl medium) were cultured in their respective media in 96-well plates until they reached 60% confluency. Hydrogels and doxycycline were added in their respective wells. Plates were incubated at 37° C., 5% CO2, for 24 h. Media were removed and 200 μl of MTT solution (0.5 mg/ml prepared in phosphate buffer saline (PBS, Himedia, Catalog #TS1119)) was added to each well. Plate was incubated in dark at 37° C., 5% CO2 for 4h. MTT solution was then removed and 100 μl demthyl sulfoxide (DMSO) was added to each well to dissolve the formazan crystal. Absorbance was calculated at 570 nm in the multiplate reader. Percent of cell viability was calculated using Equation 2.
Where, O.D. is optical density at 570 nm.

[2] = system: S. mutans; experiment: Zone of inhibition on agar plates; conditions: Streptococcus mutans, 37° C., 24 h, 25 mg hydrogel with 2 mg drug
Procedure: (§1) S. aureus and S. mutans were cultured in nutrient broth and spread onto agar plates. Hydrogels (25 mg SF doxy hydrogel having 5 mm diameter with 2 mg drug) were kept in each plate in the center on the media and for doxycycline, drug was added in the center where the media was punched out. Plates were incubated at 37° C. for 24 h. After the incubation period, radius of the zone of inhibition was measured in each plate.

[3] = system: S. aureus; experiment: Zone of inhibition on agar plates; conditions: Staphylococcus aureus, 37° C., 24 h, 25 mg hydrogel with 2 mg drug
Procedure: as §1

C[C@H]1c2cccc(O)c2C(=O)C2=C(O)[C@]3(O)C(=O)C(C(N)=O)=C(O)[C@@H](N(C)C)[C@@H]3[C@@H](O)[C@@H]21 [doxycycline]
viability at 24 h ([1]; human, HDFC cells): 40% | viability at 24 h ([1]; human, MG63 cells, MG63, 24 h): 40% | viability at 24 h ([1]; mouse, MC3T3 cells, MC3T3, 24 h): 40% | zone of inhibition at 2000 µg/disc [2]: 25 mm | zone of inhibition at 2000 µg/disc [3]: 10 mm
